One block for each compound: values may come before it.
Columns and labels:
[1] = system: Pseudococcus longispinus males; assay: Field trial of attraction response of males, persimmon orchard in Alginet; type: in vivo; settings: for Captures (mean) of P. longispinus males: rubber septum carrier loaded with 250 μg, white sticky cardboard trap, six blocks, number of males captured per trap and per day compared
Description: (§1) The response of Pseudococcus longispinus males to 2-(1,5-dimethyl-4-methylenecyclopent-2-en-1-yl)ethyl acetate was evaluated by means of a field trial carried out in a persimmon orchard, located in the town of Alginet (Valencia, Spain). Six blocks of 3 devices were installed: (A) a device with a carrier, without attractant and with a trap consisting of a white sticky cardboard (95×150 mm), (B) a device with a carrier loaded with 250 μg of the described substance by Miller et al. in 2009 (e.g. 2-(1,5,5-trimethylcyclopent-2-en-1-yl)ethyl acetate) and a trap consisting of a white sticky cardboard, and (C) a carrier device loaded with 250 μg of 2-(1,5-dimethyl-4-methylenecyclopent-2-en-1-yl)ethyl acetate and a trap consisting of a white sticky cardboard. Within each block, the devices were placed at a distance of 10 m from each other, while the distance between blocks was at least 30 m. The carriers loaded with the substances were of the rubber septa type and were inserted in the center of the trap.
(§2) The captures obtained in each of the traps were reviewed biweekly and the captured individuals were taken to the laboratory to be identified and counted.
(§3) The number of males captured per trap and per day was compared using a variance analysis (ANOVA; LSD test for comparison of means, P<0.05), prior transformation (ln(x+1)) of the data in order to homogenize the variance.

[2] = system: Pseudococcus longispinus males; assay: Second field trial of attractant activity, persimmon orchard in L'Alcúdia; type: in vivo; settings: for Attractant activity of baited devices (in words): 250 μg, versus traps without attractant (A); for Captures (mean) of P. longispinus males: rubber septum carrier loaded with 250 μg, white sticky cardboard trap, four blocks
Description: as §1, §2, §3
A second field trial was conducted to evaluate the attractant activity of 2-(1,5-dimethyl-4-methylenecyclopent-2-en-1-yl)ethyl propionate, in a persimmon orchard located in L'Alcúdia (Valencia, Spain). Four blocks of 3 devices were installed: (A) a device with a carrier, without attractant and with a trap consisting of a white sticky cardboard (95×150 mm), (B) a device with a carrier loaded with 250 μg of 2-(1,5-dimethyl-4-methylenecyclopent-2-en-1-yl)ethyl propionate and a trap consisting of a white sticky cardboard, and (C) a carrier device loaded with 250 μg of 2-(1,5-dimethyl-4-methylenecyclopent-2-en-1-yl)ethyl acetate and a trap consisting of a white sticky cardboard. The rest of trial conditions were the same as those described above.

[3] = Analysis of attractant content of the carrier after field exposure (emission); type: physicochemical
Description: as §1, with “Alginet” left out, “trap. […] Therefore, the average emission during those 21 days is 5.52±1.20 μg/day.” for “trap.”

[4] = system: populations of P. longispinus; assay: Preliminary trap tests by UPV in persimmon cultivation, Valencian Community; type: in vivo, Pseudococcus longispinus
Source text: The sex pheromone of the species P. longispinus was described by Millar et al. (Sex pheromone of the longtailed mealybug: a new class of monoterpene structure. Organic Letters 2009, 11, 2683-2685) as the compound 2-(1,5,5-trimethylcyclopent-2-en-1-yl)ethyl acetate, in populations of the species collected in the United States. However, this substance turned out to be ineffective in attracting populations of P. longispinus in persimmon cultivation in the Valencian Community. […] This is not uncommon, and this phenomenon has been described for the mealybug P. ficus, whose Californian populations produce a single-component pheromone, while Israeli populations produce an additional compound (Zada, A., Dunkelblum, E., Assael, F., Harel, M., Cojocaru, M. & Mendel, Z. (2003) Sex pheromone of the vine mealybug, Planococcus ficus in Israel: occurrence of a second component in a mass-reared population. Journal of Chemical Ecology, 29, 977-988).

Final content of the substance in the carrier ([3]; after 21 days, carrier initially loaded with 250 μg): 134 µg
Average emission ([3]; during 21 days, rubber septum loaded with 250 μg): 5.52 ± 1.20 µg/day
SMILES: C=C1C=CC(C)(CCOC(C)=O)C1C (racemic) [Acetate of formula I (C), 2-(1,5-dimethyl-4-methylenecyclopent-2-en-1-yl)ethyl acetate]
Attractive power of baited devices (in words) ([1]; 250 μg, versus traps without attractant (A) and pheromone described by Millar et al. (B)): significantly higher attractive power
Captures (mean) of P. longispinus males [1]: 19.35 b
Attractant activity of baited devices (in words) [2]: highest level of captures
Captures (mean) of P. longispinus males [2]: 406.58 c

SMILES: CC(=O)OCCC1(C)C=CCC1(C)C (centres unmarked) [Millar et al. (B), 2-(1,5,5-trimethylcyclopent-2-en-1-yl)ethyl acetate]
Captures (mean) of P. longispinus males [1]: 0.21 a
Attraction of populations of P. longispinus (in words) ([4]; persimmon cultivation in the Valencian Community): ineffective
Males captured by traps baited with virgin females relative to traps baited with the synthetic pheromone ([4]; preliminary tests, virgin females of P. longispinus as comparator): 100 times

SMILES: C=C1C=CC(C)(CCOC(=O)CC)C1C (centres unmarked) [Propionate of formula I (B), 2-(1,5-dimethyl-4-methylenecyclopent-2-en-1-yl)ethyl propionate]
Attractant activity of baited devices (in words) [2]: significant attractant activity
Captures (mean) of P. longispinus males [2]: 89.07 b
